Target: T1, PI3Kα H1047R (T47D cells) (Homo sapiens, UniProt P42336, H1047R)
T1 construct: endogenous in cells; host or cells: T47D cells
Assay: PI3Kα cellular assay: pAKT HTRF in T47D cells after EGF stimulation
Type: cell-based
Details: for IC50: T47D cells (PI3Kα H1047R), pAKT S473 HTRF
Outline: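 pAKT read by HTRF in lysates of EGF-stimulated (20 ng/mL, 10 min) T47D H1047R cells. Before stimulation, serum-starved cells (16 h) received compound for 1 h at 37 °C, dosed from 10,000 nM down to 0.5 nM in 3-fold steps.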

[1] = 1 hr compound, 20 ng/ml EGF 10 min

T1 sequence (P42336 whole entry H1047R): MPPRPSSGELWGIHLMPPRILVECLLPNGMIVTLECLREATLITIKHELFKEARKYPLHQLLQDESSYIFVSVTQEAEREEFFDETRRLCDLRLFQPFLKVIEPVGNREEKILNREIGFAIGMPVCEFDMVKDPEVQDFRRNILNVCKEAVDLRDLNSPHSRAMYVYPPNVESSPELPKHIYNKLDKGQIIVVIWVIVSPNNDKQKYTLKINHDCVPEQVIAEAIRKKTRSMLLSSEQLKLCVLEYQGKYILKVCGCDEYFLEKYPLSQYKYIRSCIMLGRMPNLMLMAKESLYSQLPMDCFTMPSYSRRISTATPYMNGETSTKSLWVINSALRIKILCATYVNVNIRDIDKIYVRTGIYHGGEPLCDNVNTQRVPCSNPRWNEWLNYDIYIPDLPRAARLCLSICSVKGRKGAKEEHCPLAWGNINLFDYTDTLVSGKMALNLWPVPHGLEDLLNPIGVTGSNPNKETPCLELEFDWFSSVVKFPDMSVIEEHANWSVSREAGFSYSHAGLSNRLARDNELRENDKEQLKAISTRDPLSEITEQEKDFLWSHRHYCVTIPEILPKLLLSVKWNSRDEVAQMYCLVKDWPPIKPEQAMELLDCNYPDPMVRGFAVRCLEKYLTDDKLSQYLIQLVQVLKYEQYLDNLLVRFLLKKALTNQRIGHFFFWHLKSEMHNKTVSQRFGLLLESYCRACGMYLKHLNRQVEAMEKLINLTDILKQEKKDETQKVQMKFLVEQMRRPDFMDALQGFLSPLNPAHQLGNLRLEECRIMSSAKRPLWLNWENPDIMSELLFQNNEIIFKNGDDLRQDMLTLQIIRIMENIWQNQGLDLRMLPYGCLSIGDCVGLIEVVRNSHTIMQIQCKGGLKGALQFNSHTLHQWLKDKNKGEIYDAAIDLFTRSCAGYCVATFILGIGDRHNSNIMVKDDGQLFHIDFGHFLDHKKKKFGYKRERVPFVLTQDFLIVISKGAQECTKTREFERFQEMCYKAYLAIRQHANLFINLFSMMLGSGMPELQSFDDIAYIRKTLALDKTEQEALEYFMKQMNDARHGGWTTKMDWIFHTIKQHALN
T1 sequence (P27986 whole entry partner): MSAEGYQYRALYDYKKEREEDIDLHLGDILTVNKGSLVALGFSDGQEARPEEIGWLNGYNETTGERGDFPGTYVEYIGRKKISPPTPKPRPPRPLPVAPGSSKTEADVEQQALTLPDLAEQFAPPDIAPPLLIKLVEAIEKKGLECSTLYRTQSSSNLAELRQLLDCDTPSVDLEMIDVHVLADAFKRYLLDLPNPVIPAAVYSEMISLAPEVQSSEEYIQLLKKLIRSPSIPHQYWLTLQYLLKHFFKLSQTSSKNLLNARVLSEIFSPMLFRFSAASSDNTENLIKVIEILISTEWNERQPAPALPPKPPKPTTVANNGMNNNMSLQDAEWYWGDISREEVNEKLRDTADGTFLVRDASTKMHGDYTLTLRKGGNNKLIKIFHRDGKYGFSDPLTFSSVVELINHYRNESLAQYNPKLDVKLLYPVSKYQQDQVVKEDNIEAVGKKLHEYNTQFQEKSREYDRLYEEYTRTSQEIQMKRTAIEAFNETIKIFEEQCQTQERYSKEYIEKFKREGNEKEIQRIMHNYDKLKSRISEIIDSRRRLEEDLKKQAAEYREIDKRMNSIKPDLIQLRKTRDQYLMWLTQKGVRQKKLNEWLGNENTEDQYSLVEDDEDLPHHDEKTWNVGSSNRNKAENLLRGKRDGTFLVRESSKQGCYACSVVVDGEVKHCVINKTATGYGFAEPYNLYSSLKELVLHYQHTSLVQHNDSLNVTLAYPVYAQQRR

Compound | T47D pAKT S473 HTRF IC50 (H1047R): T47D (H1047R) selectivity over SKBR3 (WT) | IC50 [1] [µM] | IC50 (EGF stimulation) [µM]
CC1=CN2C(=O)C(C)C(c3ccc(CCC(C)(C)C)cc3)N=C2C([C@H](C)Nc2ccccc2C(=O)O)=C1 (stereo partly drawn) [Compound 1151] | C (C denotes ≤5-fold) | – | –
CC[C@@H](Nc1ccccc1C(=O)O)c1cc(C)cn2c(=O)cc(N3CCOCC3)nc12 [Compound 293] | C (C denotes ≤5-fold) | > 2 | –
Cc1cc([C@H](C)Nc2ccccc2C(=O)O)c2cc(-c3ccncn3)cc(=O)n2c1 [Compound 482] | B (B denotes 20-fold≥value>5-fold) | 0.5 to 2 | –
Cc1cc([C@@H](C)Nc2ccccc2-c2ccnnc2)c2nc(N3CCOCC3)cc(=O)n2c1 [Compound 495] | C (C denotes ≤5-fold) | > 2 | –
CNC(=O)C#Cc1ccc(-c2nc3c([C@H](C)Nc4ccccc4C(=O)O)cc(C)cn3c(=O)c2C)cc1F [Compound 1265] | C (C denotes ≤5-fold) | – | > 2
Cc1cc([C@H](C)Nc2ccccc2C(=O)O)c2nc(Nc3ccc4[nH]c(=O)oc4c3)cc(=O)n2c1 [Compound 547] | C (C denotes ≤5-fold) | > 2 | –
Cc1cc(C(C)Nc2ccccc2C(=O)O)c2nc(-c3ccc(F)cc3)c(C#N)c(=O)n2c1 (stereo not drawn) [Compound 1260] | A (A denotes >20-fold) | – | < 0.1
Cc1cc([C@H](C)Nc2ccccc2C(N)=O)c2nc(N3CCOCC3)cc(=O)n2c1 [Compound 147] | B (B denotes 20-fold≥value>5-fold) | 0.5 to 2 | –
Cc1cc([C@@H](C)Nc2ccccc2C(=O)O)c2nc(C3CCOCC3)cc(=O)n2c1 [Compound 316] | C (C denotes ≤5-fold) | > 2 | –
Cc1cc([C@H](C)Nc2ccccc2C(=O)O)c2nc(C3CCN(C(=O)C4(N)CC4)CC3)cc(=O)n2c1 [Compound 526] | C (C denotes ≤5-fold) | > 2 | –
Cc1cc(C(C)Nc2ccccc2C(=O)O)c2nc(-c3ccnnc3)cc(=O)n2c1 (stereo not drawn) [Compound 460] | B (B denotes 20-fold≥value>5-fold) | 0.5 to 2 | –

Reference: patent US20260132129A1 (Genesis Therapeutics, Inc., priority 2022, published 2026)
